The source of these data is ChEMBL document CHEMBL1201862, “PubChem BioAssay data set” (2004).

Test systems include CAKI-1; COLO 205; HL-60; HOP-62; KM12; M14; MCF7; Malme-3M; NCI-H226; NCI-H522; OVCAR-8; RPMI-8226; SF-295; SF-539; SK-MEL-5; SN12C; SR; SW-620; TK-10; U-251.
What all share (assay): NCI tumour cell line growth inhibition, 48 h

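Tested at 5 concentrations; 48 h exposure; 96-well plates; endpoints linearly interpolated, else capped at highest concentration. GI50: concentration for 50% inhibition of growth.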 Activity calls are given as the source filed them. Rule as the data show it: active = GI50 up to about 1.1 µM and inactive = higher. Where only a bound is given, the exact number is not on record here.

For `Clc1cccc(Cl)c1/C=N/C12CC3CC(CC(C3)C1)C2`, the GI50 with CAKI-1, in the test with COLO 205, with HL-60, with HOP-62, in the test with KM12 and in the test with M14 was > 10 µM (inactive) in each case. The GI50 in the test on MCF7, in the test with Malme-3M, in the test on NCI-H226, in the test on NCI-H522, in the test on OVCAR-8 and with RPMI-8226 was > 10 µM (inactive) each time. For the same compound, the GI50 with SF-295 is > 10 µM (inactive); in the test with SF-539, > 10 µM (inactive); with SK-MEL-5, > 10 µM (inactive); with SN12C, > 10 µM (inactive); in the test with SR, 3.26 µM (inactive); in the test on SW-620, > 10 µM (inactive). Also, the GI50 in the test with TK-10 and in the test on U-251 was > 10 µM (inactive) throughout.

On to `CCC(=O)c1cc(C(=O)C(=S)SC)cc(C(=O)C(=S)SC)c1`, for which the GI50 in the test with CAKI-1 is > 100 µM (inactive); in the test on COLO 205 it was > 100 µM (inactive); with HL-60, 4.83 µM (inactive); in the test with HOP-62, > 100 µM (inactive); in the test with KM12, > 100 µM (inactive); in the test with M14, > 100 µM (inactive). In addition, the GI50 in the test on MCF7 is > 72.1 µM (inactive); with Malme-3M, > 27.3 µM (inactive); in the test with NCI-H226 it was > 100 µM (inactive); in the test on NCI-H522 it was > 55.3 µM (inactive); with OVCAR-8 it was > 100 µM (inactive); with RPMI-8226, 99.3 µM (inactive). Besides, the GI50 in the test with SF-295 was > 100 µM (inactive); with SF-539, > 100 µM (inactive); in the test on SK-MEL-5, > 82.8 µM (inactive); with SN12C it was > 100 µM (inactive); with SR, 11 µM (inactive); in the test with SW-620 it was 52.8 µM (inactive). Also, the GI50 in the test with TK-10 is > 100 µM (inactive); in the test on U-251, > 69.3 µM (inactive).

Consider `C=C(C)[C@@]1(OC(=O)c2cc([N+](=O)[O-])cc([N+](=O)[O-])c2)C[C@@H]2CCCC[C@@H]21`, for which the GI50 in the test with CAKI-1 is > 100 µM (inactive); with COLO 205, 39.2 µM (inactive); in the test with HL-60, 95.1 µM (inactive); with HOP-62 it was 62.4 µM (inactive); with KM12, > 100 µM (inactive); with M14 it was 53.6 µM (inactive). For the same compound, the GI50 is 64 µM (inactive) with MCF7; 34.2 µM (inactive) in the test with Malme-3M; > 100 µM (inactive) with NCI-H226; > 100 µM (inactive) with NCI-H522; > 100 µM (inactive) in the test with OVCAR-8; 45.4 µM (inactive) in the test with RPMI-8226. The GI50 was 72.9 µM (inactive) with SF-295; > 100 µM (inactive) with SF-539; > 10 µM (inactive) in the test with SK-MEL-5; > 100 µM (inactive) with SN12C; > 100 µM (inactive) in the test with SR; > 100 µM (inactive) with SW-620. The GI50 in the test on TK-10 and in the test with U-251 was > 100 µM (inactive) in each case.

`O=[N+]([O-])c1ccc2c(c1)C1=NN(c3ccccc3)C(c3ccccc3Br)C1CCC2` (stereo not given): the GI50 was 23.4 µM (inactive) in the test with CAKI-1; 33.7 µM (inactive) with COLO 205; 7.64 µM (inactive) in the test on HL-60; 43.6 µM (inactive) in the test with HOP-62; 16.9 µM (inactive) in the test on KM12; 23.2 µM (inactive) in the test with M14. Further, the GI50 in the test on MCF7 was 11.2 µM (inactive); with Malme-3M, 24.8 µM (inactive); with NCI-H226, 25.5 µM (inactive); in the test on NCI-H522, 13.3 µM (inactive); in the test on OVCAR-8 it was 22.2 µM (inactive); in the test on RPMI-8226, 6.85 µM (inactive). In addition, the GI50 was 17.9 µM (inactive) in the test on SF-295; 19.1 µM (inactive) with SF-539; 15.4 µM (inactive) in the test with SK-MEL-5; 24.6 µM (inactive) in the test with SN12C; 4.05 µM (inactive) in the test on SR; 9.12 µM (inactive) in the test with SW-620. Also, the GI50 was 38.2 µM (inactive) in the test on TK-10 and 25.3 µM (inactive) in the test on U-251.

For the compound `Cc1ccc(OC2CC(n3cnc4c(=O)[nH]c(Br)nc43)OC2Oc2ccc(C)cc2)cc1` (stereo not given), the GI50 in the test with CAKI-1 was 24.9 µM (inactive); in the test with COLO 205, 31 µM (inactive); in the test on HL-60, 30.3 µM (inactive); with HOP-62, 24.1 µM (inactive); with KM12, 29 µM (inactive); in the test on M14, 24.9 µM (inactive). The GI50 with MCF7 was 23.5 µM (inactive); in the test with Malme-3M it was 22.9 µM (inactive); with NCI-H226 it was 34.5 µM (inactive); with NCI-H522, 21.2 µM (inactive); in the test with OVCAR-8, 25.3 µM (inactive); in the test on RPMI-8226 it was 34.4 µM (inactive). The GI50 was 21.7 µM (inactive) in the test with SF-295; 20.2 µM (inactive) in the test with SF-539; 22.4 µM (inactive) with SK-MEL-5; 26.2 µM (inactive) in the test on SN12C; 18.1 µM (inactive) in the test with SR; 44.4 µM (inactive) with SW-620. The GI50 in the test with TK-10 is 23.2 µM (inactive); in the test with U-251, 29.1 µM (inactive).

For `COc1ccccc1NC(=S)N/N=C(/c1ccccc1)c1ccccn1`, the GI50 is < 0.0421 µM (active) in the test with CAKI-1; 0.0173 µM (active) in the test with COLO 205; < 0.0131 µM (active) in the test with HL-60; 0.251 µM (active) in the test with HOP-62; 0.151 µM (active) in the test with KM12; < 0.0249 µM (active) with M14. In addition, the GI50 in the test with MCF7 is 0.0228 µM (active); in the test on Malme-3M, 0.167 µM (active); in the test on NCI-H226, 0.146 µM (active); with NCI-H522 it was 0.499 µM (active); with OVCAR-8 it was 0.0627 µM (active); in the test with RPMI-8226 it was 0.0299 µM (active). Also, the GI50 is 0.261 µM (active) in the test on SF-295; 1.37 µM (inactive) in the test with SF-539; 0.0904 µM (active) with SK-MEL-5; 0.685 µM (active) in the test with SN12C; < 0.0206 µM (active) in the test with SR; 0.021 µM (active) in the test with SW-620. The GI50 in the test on TK-10 is 0.125 µM (active); in the test with U-251 it was 0.0635 µM (active).

On to `C[N+](C)(N)CCC[N+](C)(C)N`, for which the GI50 with CAKI-1, in the test on COLO 205, with HL-60, with HOP-62, in the test with KM12 and with M14 was > 100 µM (inactive) throughout. Moreover, the GI50 with MCF7, in the test on Malme-3M, with NCI-H226, in the test with NCI-H522, in the test on OVCAR-8 and with RPMI-8226 was > 100 µM (inactive) throughout. Further, the GI50 with SF-295, in the test with SF-539, with SK-MEL-5, with SN12C, with SR and in the test on SW-620 was > 100 µM (inactive) throughout. Also, the GI50 in the test with TK-10 and in the test on U-251 was > 100 µM (inactive) in each case.
